Values of other authors, collected in paper PMC8277557 (Bioorganic & Medicinal Chemistry Letters, 2021).
Like-named read-outs stand apart in the source and are kept apart here.

Key:
[1] = test system: CoV-2 3CLpro; conditions: for IC50: read-out: Literature IC50, CoV-2 3CLpro
[2] = biological target: CoV-1 3CLpro
[3] = in vivo

With `CCCC[C@@H](C=O)NC(=O)[C@H](CC(C)C)NC(=O)OCc1ccccc1` [Calpeptin] as the compound, how does the IC50 ([1]; ref [16]) read?
The IC50 was 10.7 ± 0.28 µM.

And the IC50 ([1]; ref [31])?
Its IC50 is 4.81 ± 0.18 µM.

Which Ki ([2]; read-out: Literature Ki, CoV-1 3CLpro, ref [19]) does the source give for `CCOC(=O)/C=C/[C@H](C[C@@H]1CCNC1=O)NC(=O)[C@H](CC(C)C)NC(=O)[C@@H](NC(=O)OCc1ccccc1)C(C)C` [Compound 3] here?
Its Ki is 0.66 µM.

Which IC50 ([2]; read-out: Literature IC50) does the source give for `CC(C)C[C@H](NC(=O)OCc1ccccc1)C(=O)N[C@@H](C[C@@H]1CCNC1=O)C(=O)c1nc2ccccc2s1` [Compound 25c] here?
Its IC50 is 21 µM.

With Boceprevir as the compound, how does the IC50 ([1]; ref [16]) read?
The IC50 was 4.13 ± 0.61 µM.

And the IC50 ([1]; ref [29])?
The IC50 was 5.4 ± 1.53 µM.

Which IC50 ([1]; ref [20]) does the source give for `O=C[C@H](C[C@@H]1CCNC1=O)NC(=O)[C@H](Cc1cccc(F)c1)NC(=O)c1cc2ccccc2[nH]1` [Compound 11b] here?
Its IC50 is 0.04 ± 0.002 µM.

With `C[C@@H](OC(C)(C)C)[C@H](NC(=O)OCc1ccccc1)C(=O)N[C@@H](CC1CCCCC1)C(=O)N[C@H](C=O)C[C@@H]1CCNC1=O` [TG-0205221] as the compound, how does the “pharmacokinetic profile in rodents” value [3] read?
Its value is “favourable pharmacokinetic profile”.

With `CCOC(=O)/C=C/[C@H](C[C@@H]1CCNC1=O)NC(=O)[C@@H](CC(=O)[C@@H](NC(=O)c1cc(C)on1)C(C)C)Cc1ccc(F)cc1` [Rupintrivir] as the compound, how does the “activity against SARS-CoV-2 3CLpro” value ([1]; ref [16], [19]) read?
The value was “inactive”.

What about the “activity against SARS-CoV-1 3CLpro” value [2] of the same compound?
Its value is “inactive”.
